Earlier results, collected in patent US20210038510A1, “FORMULATIONS OF KINASE INHIBITORS AND PROSTANOIDS” (PULMOKINE, INC., priority 2018, published 2021).

Assays:
[1] = system: rat monocrotaline model of PAH
[2] = system: patients with advanced PAH
[3] = system: PDGFRβ isoform versus PDGFRα isoform

## Cc1ccc(NC(=O)c2ccc(CN3CCN(C)CC3)cc2)cc1Nc1nccc(-c2cccnc2)n1 [Imatinib, imatinib]
[1]
  Right ventricular systolic pressure (RVSP): decreases
  Survival: improves survival
[2]
  Cardiopulmonary hemodynamics: improves cardiopulmonary hemodynamics
[3]
  Potency against the PDGFRβ isoform compared with the PDGFRα isoform: less potent
